One data set relates to Bacteroides fragilis. Put plainly: Toxicity against Bacteroides fragilis assessed as inhibition of microbe growth. In kind it is organism-based.
Data set [1] concerns Clostridioides difficile. Nature of the data set: Antimicrobial activity against metronidazole-resistant Clostridium difficile. In kind it is functional.
Data set [2] concerns Clostridioides difficile. Put plainly: Antimicrobial activity against daptomycin-resistant Clostridium difficile ATCC 43596 infected in Syrian golden hamster model of Clostridium difficile-associated diarrhea assessed as protection against microbial infection by measuring survival at day 25 to 26 at 0.5 mg/kg treated once daily for 5 consecutive days starting 4 hrs after spore inoculation. The class given is functional.

Data set [3] deals with Clostridioides difficile. Put plainly: Antimicrobial activity against vancomycin-resistant Clostridium difficile. The class given is functional.
For data set [4], the system named is Staphylococcus aureus. Put plainly: Antimicrobial activity against daptomycin-non-susceptible Staphylococcus aureus 5076 incubated anaerobically at 37 degC for 48 hrs by agar dilution method. The class given is functional. As to conditions: Staphylococcus aureus, 5076, 48 h. (In general: In agar dilution the substance is mixed into plates at graded concentrations.)

The test system of data set [5] is Staphylococcus aureus. Nature of the data set: Antimicrobial activity against daptomycin-non-susceptible Staphylococcus aureus 1145 incubated anaerobically at 37 degC for 48 hrs by agar dilution method. The class given is functional. As to conditions: Staphylococcus aureus, 1145, 48 h.
The test system of data set [6] is Staphylococcus aureus. Nature of the data set: Antimicrobial activity against daptomycin-non-susceptible Staphylococcus aureus 278 incubated anaerobically at 37 degC for 48 hrs by agar dilution method. The class given is functional. The following applies: Staphylococcus aureus, 278, 48 h.
The subject of data set [7] is Staphylococcus aureus. Put plainly: Antimicrobial activity against daptomycin-non-susceptible Staphylococcus aureus 5017 incubated anaerobically at 37 degC for 48 hrs by agar dilution method. As to conditions: Staphylococcus aureus, 5017, 48 h. In kind it is functional.
In data set [8] the test system is Staphylococcus aureus. Put plainly: Antimicrobial activity against daptomycin-non-susceptible Staphylococcus aureus 5030 incubated anaerobically at 37 degC for 48 hrs by agar dilution method. As to conditions: Staphylococcus aureus, 5030, 48 h. In kind it is functional.
For data set [9], the system named is Staphylococcus aureus. Put plainly: Antimicrobial activity against daptomycin-susceptible Staphylococcus aureus ATCC 29213 incubated anaerobically at 37 degC for 48 hrs by agar dilution method. In kind it is functional. As to conditions: ATCC 29213, 48 h.
Data set [10] concerns Staphylococcus aureus. Nature of the data set: Antimicrobial activity against daptomycin-non-susceptible Staphylococcus aureus 5005 incubated anaerobically at 37 degC for 48 hrs by agar dilution method. The class given is functional. The following applies: Staphylococcus aureus, 5005, 48 h.
Data set [11] has as its system Staphylococcus aureus. Nature of the data set: Antimicrobial activity against daptomycin-non-susceptible Staphylococcus aureus 5080 incubated anaerobically at 37 degC for 48 hrs by agar dilution method. The class given is functional. The following applies: Staphylococcus aureus, 5080, 48 h.
Data set [12] deals with Staphylococcus aureus. Nature of the data set: Antimicrobial activity against daptomycin-non-susceptible Staphylococcus aureus 5033 incubated anaerobically at 37 degC for 48 hrs by agar dilution method. The class given is functional. The following applies: Staphylococcus aureus, 5033, 48 h.
The subject of another data set is Enterococcus faecalis. Put plainly: Antimicrobial activity against daptomycin-resistant Enterococcus faecalis ATCC 49452 incubated anaerobically at 37 degC for 48 hrs by agar dilution method. The following applies: ATCC 49452, 48 h. The class given is functional.
Data set [13] deals with Staphylococcus aureus. Nature of the data set: Antimicrobial activity against daptomycin-non-susceptible Staphylococcus aureus 5014 incubated anaerobically at 37 degC for 48 hrs by agar dilution method. In kind it is functional. As to conditions: Staphylococcus aureus, 5014, 48 h.
Data set [14] deals with Staphylococcus aureus. Nature of the data set: Antimicrobial activity against daptomycin-non-susceptible Staphylococcus aureus 5063 incubated anaerobically at 37 degC for 48 hrs by agar dilution method. As to conditions: Staphylococcus aureus, 5063, 48 h. In kind it is functional.
The test system of data set [15] is Staphylococcus aureus. Nature of the data set: Antimicrobial activity against daptomycin-non-susceptible Staphylococcus aureus 5091 incubated anaerobically at 37 degC for 48 hrs by agar dilution method. The following applies: Staphylococcus aureus, 5091, 48 h. The class given is functional.
Data set [16] has as its system Staphylococcus aureus. Put plainly: Antimicrobial activity against daptomycin-non-susceptible Staphylococcus aureus 5016 incubated anaerobically at 37 degC for 48 hrs by agar dilution method. The class given is functional. As to conditions: Staphylococcus aureus, 5016, 48 h.
Data set [17] has as its system Staphylococcus aureus. Put plainly: Antimicrobial activity against daptomycin-non-susceptible Staphylococcus aureus 1326 incubated anaerobically at 37 degC for 48 hrs by agar dilution method. In kind it is functional. As to conditions: Staphylococcus aureus, 1326, 48 h.
For data set [18], the system named is Staphylococcus aureus. Nature of the data set: Antimicrobial activity against daptomycin-non-susceptible Staphylococcus aureus 1146 incubated anaerobically at 37 degC for 48 hrs by agar dilution method. The class given is functional. The following applies: Staphylococcus aureus, 1146, 48 h.
The subject of data set [19] is Staphylococcus aureus. Put plainly: Antimicrobial activity against daptomycin-non-susceptible Staphylococcus aureus 5010 incubated anaerobically at 37 degC for 48 hrs by agar dilution method. In kind it is functional. As to conditions: Staphylococcus aureus, 5010, 48 h.
Data set [20] relates to Staphylococcus aureus. Put plainly: Antimicrobial activity against daptomycin-non-susceptible Staphylococcus aureus 5060 incubated anaerobically at 37 degC for 48 hrs by agar dilution method. As to conditions: Staphylococcus aureus, 5060, 48 h. The class given is functional.
For data set [21], the system named is Staphylococcus aureus. Nature of the data set: Antimicrobial activity against daptomycin-non-susceptible Staphylococcus aureus 1616 incubated anaerobically at 37 degC for 48 hrs by agar dilution method. The following applies: Staphylococcus aureus, 1616, 48 h. The class given is functional.
The next data set deals with Enterococcus faecium. Nature of the data set: Antimicrobial activity against daptomycin-resistant Enterococcus faecium ATCC 6569 incubated anaerobically at 37 degC for 48 hrs by agar dilution method. In kind it is functional. As to conditions: ATCC 6569, 48 h.
For data set [22], the system named is Staphylococcus aureus. Nature of the data set: Antimicrobial activity against daptomycin-non-susceptible Staphylococcus aureus 5034 incubated anaerobically at 37 degC for 48 hrs by agar dilution method. In kind it is functional. As to conditions: Staphylococcus aureus, 5034, 48 h.
Data set [23] relates to Staphylococcus aureus. Nature of the data set: Antimicrobial activity against daptomycin-non-susceptible Staphylococcus aureus 1179 incubated anaerobically at 37 degC for 48 hrs by agar dilution method. In kind it is functional. As to conditions: Staphylococcus aureus, 1179, 48 h.
In data set [24] the test system is Staphylococcus aureus. Nature of the data set: Antimicrobial activity against daptomycin-non-susceptible Staphylococcus aureus 42 incubated anaerobically at 37 degC for 48 hrs by agar dilution method. The class given is functional. The following applies: Staphylococcus aureus, 42, 48 h.
Data set [25] concerns Staphylococcus aureus. Nature of the data set: Antimicrobial activity against daptomycin-non-susceptible Staphylococcus aureus 5012 incubated anaerobically at 37 degC for 48 hrs by agar dilution method. The class given is functional. The following applies: Staphylococcus aureus, 5012, 48 h.
Data set [26] relates to Staphylococcus aureus. Put plainly: Antimicrobial activity against daptomycin-non-susceptible Staphylococcus aureus 5004 incubated anaerobically at 37 degC for 48 hrs by agar dilution method. The class given is functional. As to conditions: Staphylococcus aureus, 5004, 48 h.
The test system of data set [27] is Staphylococcus aureus. Nature of the data set: Antimicrobial activity against daptomycin-non-susceptible Staphylococcus aureus 5008 incubated anaerobically at 37 degC for 48 hrs by agar dilution method. The class given is functional. As to conditions: Staphylococcus aureus, 5008, 48 h.
For data set [28], the system named is Staphylococcus aureus. Put plainly: Antimicrobial activity against daptomycin-non-susceptible Staphylococcus aureus 5081 incubated anaerobically at 37 degC for 48 hrs by agar dilution method. In kind it is functional. The following applies: Staphylococcus aureus, 5081, 48 h.
The subject of data set [29] is Clostridioides difficile. Nature of the data set: Antimicrobial activity against daptomycin-resistant Clostridium difficile NAP1 incubated anaerobically at 37 degC for 48 hrs by agar dilution method. As to conditions: NAP1, 48 h. The class given is functional.
Data set [30] concerns Staphylococcus aureus. Nature of the data set: Antimicrobial activity against daptomycin-non-susceptible Staphylococcus aureus 5003 incubated anaerobically at 37 degC for 48 hrs by agar dilution method. In kind it is functional. As to conditions: Staphylococcus aureus, 5003, 48 h.
In data set [31] the test system is Staphylococcus aureus. Nature of the data set: Antimicrobial activity against daptomycin-non-susceptible Staphylococcus aureus 5006 incubated anaerobically at 37 degC for 48 hrs by agar dilution method. The class given is functional. The following applies: Staphylococcus aureus, 5006, 48 h.
The test system of data set [32] is Staphylococcus aureus. Put plainly: Antimicrobial activity against daptomycin-non-susceptible Staphylococcus aureus 5059 incubated anaerobically at 37 degC for 48 hrs by agar dilution method. The class given is functional. As to conditions: Staphylococcus aureus, 5059, 48 h.

≈ marks a conversion by molar mass, not a printed value.

The source of these data is ChEMBL document CHEMBL3576778, “Structure-Activity Relationship Studies of a Series of Semisynthetic Lipopeptides Leading to the Discovery of Surotomycin, a Novel Cyclic Lipopeptide Being Developed for the Treatment of Clostridium difficile-Associated Diarrhea” (J Med Chem, 2015).

Regarding `CCCCCc1ccc(/C(C)=C/C(=O)N[C@@H](Cc2c[nH]c3ccccc23)C(=O)N[C@H](CC(N)=O)C(=O)N[C@@H](CC(=O)O)C(=O)N[C@@H]2C(=O)NCC(=O)N[C@@H](CCCN)C(=O)N[C@@H](CC(=O)O)C(=O)N[C@H](C)C(=O)N[C@@H](CC(=O)O)C(=O)NCC(=O)N[C@H](CO)C(=O)N[C@@H]([C@@H](C)CC(=O)O)C(=O)N[C@@H](CC(=O)c3ccccc3N)C(=O)O[C@@H]2C)cc1`, the MIC entry with Bacteroides fragilis is listed as “>= 8192 ug ml-1”.
Consider `Cc1ncc([N+](=O)[O-])n1CCO` [METRONIDAZOLE], for which the MIC in the data set with Clostridioides difficile [1] was no less than 8 µg/mL.
`CN[C@H](CC(C)C)C(=O)N[C@H]1C(=O)N[C@@H](CC(N)=O)C(=O)N[C@H]2C(=O)N[C@H]3C(=O)N[C@H](C(=O)N[C@H](C(=O)O)c4cc(O)cc(O)c4-c4cc3ccc4O)[C@H](O)c3ccc(c(Cl)c3)Oc3cc2cc(c3O[C@@H]2O[C@H](CO)[C@@H](O)[C@H](O)[C@H]2O[C@H]2C[C@](C)(N)[C@H](O)[C@H](C)O2)Oc2ccc(cc2Cl)[C@H]1O` [VANCOMYCIN]: the survival at 0.5 mg/kg with Clostridioides difficile [2] was 25%. The molecule also gave an MIC in the data set on Clostridioides difficile [3] of no less than 4 µg/mL.
`CCCCCCCCCC(=O)N[C@@H](Cc1c[nH]c2ccccc12)C(=O)N[C@H](CC(N)=O)C(=O)N[C@@H](CC(=O)O)C(=O)N[C@@H]1C(=O)NCC(=O)N[C@@H](CCCN)C(=O)N[C@@H](CC(=O)O)C(=O)N[C@H](C)C(=O)N[C@@H](CC(=O)O)C(=O)NCC(=O)N[C@H](CO)C(=O)N[C@@H]([C@H](C)CC(=O)O)C(=O)N[C@@H](CC(=O)c2ccccc2N)C(=O)O[C@@H]1C`: the MIC in the data set on Staphylococcus aureus [4] was 2 µg/mL (≈ 1.23 µM); in the data set with Staphylococcus aureus [5] it was 1 µg/mL (≈ 0.617 µM); against Staphylococcus aureus [6], 16 µg/mL (≈ 9.87 µM); with Staphylococcus aureus [7], 4 µg/mL (≈ 2.47 µM); in the data set on Staphylococcus aureus [8] it was 8 µg/mL (≈ 4.94 µM); against Staphylococcus aureus [9], 0.5 µg/mL (≈ 0.309 µM). Besides, the MIC was 4 µg/mL (≈ 2.47 µM) against Staphylococcus aureus [10]; 4 µg/mL (≈ 2.47 µM) with Staphylococcus aureus [11]; 1 µg/mL (≈ 0.617 µM) in the data set on Staphylococcus aureus [12]; greater than 32 µg/mL in the data set with Enterococcus faecalis; 0.5 µg/mL (≈ 0.309 µM) in the data set on Staphylococcus aureus [13]; 8 µg/mL (≈ 4.94 µM) in the data set on Staphylococcus aureus [14]. Also, the MIC with Staphylococcus aureus [15] worked out at 2 µg/mL (≈ 1.23 µM); against Staphylococcus aureus [16] it was 4 µg/mL (≈ 2.47 µM); in the data set with Staphylococcus aureus [17], 4 µg/mL (≈ 2.47 µM); against Staphylococcus aureus [18] it was 1 µg/mL (≈ 0.617 µM); with Staphylococcus aureus [19], 0.5 µg/mL (≈ 0.309 µM); against Staphylococcus aureus [20], 4 µg/mL (≈ 2.47 µM). Moreover, the MIC with Staphylococcus aureus [21] was 16 µg/mL (≈ 9.87 µM); in the data set on Enterococcus faecium it was greater than 32 µg/mL; against Staphylococcus aureus [22], 2 µg/mL (≈ 1.23 µM); against Staphylococcus aureus [23] it was 2 µg/mL (≈ 1.23 µM); against Staphylococcus aureus [24] it was 0.5 µg/mL (≈ 0.309 µM); in the data set with Staphylococcus aureus [25], 2 µg/mL (≈ 1.23 µM). Moreover, the MIC against Staphylococcus aureus [26] was determined as 1 µg/mL (≈ 0.617 µM); against Staphylococcus aureus [27] it was 2 µg/mL (≈ 1.23 µM); against Staphylococcus aureus [28], 4 µg/mL (≈ 2.47 µM); with Clostridioides difficile [29], 2 µg/mL (≈ 1.23 µM); against Staphylococcus aureus [30], 2 µg/mL (≈ 1.23 µM); in the data set on Staphylococcus aureus [31], 2 µg/mL (≈ 1.23 µM). This molecule also registered an MIC in the data set on Staphylococcus aureus [32] of 4 µg/mL (≈ 2.47 µM).
